{"source": "patent US20230026869A1", "about": "“CRYSTAL FORM OF NUCLEOPROTEIN INHIBITOR AND USE THEREOF” (CHIA TAI TIANQING PHARMACEUTICAL GROUP CO., LTD., priority 2019, published 2023)", "key": {"HBV": {"system": "HBV", "assay": "qPCR assay for in vitro testing of HBV (HBV DNA content in HepG2.2.15 cells)", "assay_type": "cell-based", "conditions": "Hepatitis B virus, 192 h, HBV DNA by qPCR, day 8, read-out: Concentration for 50% of maximal effect (EC50) of HBV", "protocol": "HBV DNA content in HepG2.2.15 cells was detected by a real time-qPCR assay, and the inhibitory action of the compound on HBV was evaluated by taking the EC50 value of the compound as an index.\n2.1. cell lines: HepG2.2.15 cells\n3.1. HepG2.2.15 cells (4×10^4 cells/well) were plated in a 96-well plate and cultured overnight at 37° C. and 5% CO2.\n3.2. On the next day, the compound was diluted for a total of 8 concentrations, with 3-fold gradient dilutions. The compound at different concentrations was added into the culture wells in duplicate. The final concentration of DMSO in the culture medium was 1%. 1 μM GLS4 served as 100% inhibition control (WO2008154817A1 discloses the structure of GLS4 as follows:\nDMSO at 1% served as 0% inhibition control.\n3.3. On the fifth day, the original culture medium was replaced with a fresh culture medium containing the compound.\n3.4. On the eighth day, the culture medium in the culture wells was collected, and the high-throughput DNA purification kit (Qiagen-51162) was used to extract DNA. For specific steps, refer to the product manual.\n3.6. 15 μL of the reaction mixture was added into each well of the 96-well PCR plate, and then 10 μL of sample DNA or HBV DNA standard was added into each well.\n3.7. Reaction conditions for PCR were as follows: heating at 95° C. for 10 min; then denaturating at 95° C. for 15 s and extending at 60° C. for 1 min for 40 cycles.\n3.8.1. […]"}, "CYP2C9": {"target": "T1, CYP2C9 (Homo sapiens, UniProt P11712)", "T1 construct": "from tissue; host or cells: human liver microsomes", "T1 sequence (P11712 whole entry)": "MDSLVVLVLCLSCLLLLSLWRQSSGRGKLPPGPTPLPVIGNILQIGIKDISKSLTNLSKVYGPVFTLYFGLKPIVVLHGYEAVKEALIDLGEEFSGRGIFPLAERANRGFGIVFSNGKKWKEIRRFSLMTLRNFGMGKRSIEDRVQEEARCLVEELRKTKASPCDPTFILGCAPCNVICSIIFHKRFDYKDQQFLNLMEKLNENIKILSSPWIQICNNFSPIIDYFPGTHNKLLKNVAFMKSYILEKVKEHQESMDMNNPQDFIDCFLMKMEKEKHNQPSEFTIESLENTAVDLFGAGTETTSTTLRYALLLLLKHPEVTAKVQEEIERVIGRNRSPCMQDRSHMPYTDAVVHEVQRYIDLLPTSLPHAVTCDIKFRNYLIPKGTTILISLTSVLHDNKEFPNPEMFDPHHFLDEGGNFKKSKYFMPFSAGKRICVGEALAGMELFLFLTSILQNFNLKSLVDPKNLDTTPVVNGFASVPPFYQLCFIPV", "assay": "Inhibition of human liver microsomal cytochrome P450 isoenzyme CYP2C9", "assay_type": "in vitro ADME", "conditions": "human liver microsomes", "protocol": "Objective: The inhibitory effect of the test compound on the activity of human liver microsomal cytochrome P450 isoenzymes (CYP1A2, CYP2C9, CYP2C19, CYP2D6 and CYP3A4) was determined. […]"}, "[1]": {"assay": "Metabolic stability in CD-1 mice liver microsomes", "assay_type": "in vitro ADME", "protocol": "(§1) Objective: The metabolic stability of the test compound in CD-1 mice and human liver microsomes was determined. […]"}, "[2]": {"assay": "Metabolic stability in human liver microsomes", "assay_type": "in vitro ADME", "protocol": "as §1"}, "[3]": {"assay": "Metabolic stability in liver microsomes of SD rats", "assay_type": "in vitro ADME", "conditions": "rat", "protocol": "Objective: The metabolic stability of the tested compound of formula (I) in liver microsomes of rats, beagle dogs and cynomolgus monkeys was determined. […]"}}, "note": "pEC50, pIC50: −log10 of the molar value.", "data": [{"smiles": "CC1(NC(=O)C(=O)c2c(Cl)c(C(=O)Nc3cc(F)c(F)c(F)c3)c3n2CCC3)CCC(CC(=O)O)CC1", "note": "(centres unmarked) [Compound of formula (I)]", "values": [{"measurement": "pEC50", "setting": "HBV", "value": 8.40}, {"measurement": "pIC50", "setting": "CYP2C9", "value": "< 4.30"}, {"measurement": "microsomal CLint at 1 μM", "setting": "[1]; CD-1, mouse, microsomes", "value": "< 9.6", "unit": "µL/min/mg"}, {"measurement": "CLint scaled at 1 μM", "setting": "[1]; mouse, CD-1 mice liver microsomes", "value": "< 38", "unit": "mL/min/kg"}, {"measurement": "half-life at 1 μM", "setting": "[1]; mouse, CD-1 mice liver microsomes, 1 μM compound, 0.5 mg/mL", "value": "> 145", "unit": "min"}, {"measurement": "half-life at 1 μM", "setting": "[2]; Human liver microsomes, 1 μM compound, 0.5 mg/mL", "value": "> 145", "unit": "min"}, {"measurement": "CLint scaled at 1 μM", "setting": "[2]; human liver microsomes", "value": "< 8.6", "unit": "mL/min/kg"}, {"measurement": "microsomal CLint at 1 μM", "setting": "[2]; human, microsomes", "value": "< 9.6", "unit": "µL/min/mg"}, {"measurement": "microsomal CLint at 1 μM", "setting": "[3]; SD, microsomes", "value": "< 9.6", "unit": "µL/min/mg"}, {"measurement": "CLint scaled at 1 μM", "setting": "[3]; SD rats liver microsomes", "value": "< 17.3", "unit": "mL/min/kg"}, {"measurement": "half-life at 1 μM", "setting": "[3]; SD rats liver microsomes, 1 μM compound, 0.5 mg/mL", "value": "> 145", "unit": "min"}]}]}
